# Assays:
# [1] = biological target: T1, amyloid β peptide (Aβ40 fibrils) (Homo sapiens, UniProt P05067); assay: direct fluorescence titration of Aβ[…] fibrils, one-site fit; type: binding
# [2] = biological target: T1, amyloid β peptide (Aβ40 fibrils); assay: ThT fluorescence competition assay with Aβ[…] fibrils; type: binding
# T1 sequence (P05067 672-711): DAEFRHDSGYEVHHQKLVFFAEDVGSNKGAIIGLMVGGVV
Kd [1] [µM],Ki [2] [µM],SMILES
4.7 ± 0.3,,"CCN(CC)c1ccc(-c2nc3ccccc3s2)c(O)c1 [L1, 2-[2-hydroxy-4-(diethylamino)phenyl]benzothiazole]"
,0.015 ± 0.01,"COc1cccc(-c2nc3ccccc3s2)c1O [L2, 2-(2-hydroxy-3-methoxyphenyl)benzothiazole]"

# — publication PMC4220862 (Inorganic Chemistry, 2014)
